Measurements from article PMC8054307 (The Journal of pharmacy and pharmacology, 2018).
“Also recorded” adds a separate entry of the source.

Columns and labels:
[1] = test system: cytochrome P450 (CYP450) enzyme system; settings: cited from earlier work
[2] = rat, in vivo, po; cited from earlier work
[3] = Pharmacokinetic study of CdG in rats after i.v. and p.o. administration; type: in vivo, Male Sprague-Dawley rats; settings: 1 mg/kg; for half-life: t1/2, rats
ETV-resistant HBV = settings: oral 0.02 mg/kg/day, hu-liver-chimeric mice; cited from earlier work
wild-type HBV [4] = settings: read-out: half-maximal inhibitory concentration (IC50); cited from earlier work
wild-type HBV [5] = settings: oral 0.02 mg/kg/day, hu-liver-chimeric mice; cited from earlier work
[6] = Urinary excretion of CdG in rats; type: in vivo, Male Sprague-Dawley rats; settings: for amount of unchanged CdG accumulated in urine: 9 h after administration
[7] = Protein binding by ultrafiltration, human plasma; type: in vitro ADME; settings: pooled human plasma
[8] = test system: human α1 acidic glycoprotein (AGP); test: Protein binding by ultrafiltration, AGP; type: in vitro ADME; settings: 45 μM AGP, CdG 500 ng/ml
[9] = test system: cytochrome P450 (CYP450) enzyme system; test: Metabolism by CYP450; type: in vitro ADME; settings: data not shown
[10] = 2 days after administration; another study of the authors, ref not given; cited from earlier work
[11] = Tissue distribution of CdG to liver and kidney in rats; type: in vivo, Male Sprague-Dawley rats; settings: 9 h after i.v. or p.o. 1 mg/kg
[12] = Pharmacokinetic study of CdG and ETV oral co-administration in rats; type: in vivo; settings: male, Sprague-Dawley, rat, plasma, 1 mg/kg
[13] = molecular target: human serum albumin (HSA) (Homo sapiens, UniProt P02768); test: Protein binding by ultrafiltration, HSA; type: in vitro ADME; settings: 600 μM HSA, CdG 500 ng/ml
Chain of human serum albumin (HSA) (P02768 25-609): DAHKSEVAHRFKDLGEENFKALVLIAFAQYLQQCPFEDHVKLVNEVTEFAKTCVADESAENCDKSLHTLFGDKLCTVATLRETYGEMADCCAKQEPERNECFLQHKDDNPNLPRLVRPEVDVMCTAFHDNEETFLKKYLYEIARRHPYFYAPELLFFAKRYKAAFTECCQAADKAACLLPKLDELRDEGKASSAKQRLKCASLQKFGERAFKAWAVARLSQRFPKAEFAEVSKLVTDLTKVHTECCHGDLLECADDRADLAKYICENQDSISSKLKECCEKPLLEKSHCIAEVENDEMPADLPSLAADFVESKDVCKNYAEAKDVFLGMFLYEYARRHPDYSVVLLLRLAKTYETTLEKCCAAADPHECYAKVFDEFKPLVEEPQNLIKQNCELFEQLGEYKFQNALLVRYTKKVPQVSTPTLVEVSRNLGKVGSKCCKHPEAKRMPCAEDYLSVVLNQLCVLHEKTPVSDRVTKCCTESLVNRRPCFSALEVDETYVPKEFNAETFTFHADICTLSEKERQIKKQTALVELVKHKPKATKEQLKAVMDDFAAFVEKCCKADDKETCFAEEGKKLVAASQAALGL

[14] = male, Sprague-Dawley, rat, plasma, iv
[15] = male, Sprague-Dawley, rat, plasma, po

C=C1[C@H](CO)[C@@H](O)C[C@@H]1n1cnc2c(=O)[nH]c(N)nc21 [ETV, entecavir]
substrate for the CYP450 enzyme system [1]: not a substrate
bioavailability [2]: approximately 78%

N#C[C@]1(CO)O[C@@H](n2cnc3c(=O)[nH]c(N)nc32)C[C@@H]1O [CdG, 4′-cyano-2′-deoxyguanosine]
AUC [3, 14]: 123 ± 28.1 ng·h/mL
MRT [3, 14]: 29.4 ± 3.6 min
Vd [3, 14]: 4.08 ± 0.62 L/kg
clearance [3, 14]: 141 mL/min/kg
half-life [3, 14]: 30 min
AUC [3, 15]: 90.1 ± 5.75 ng·h/mL
CL/F [3, 15]: 185 mL/min/kg
Cmax [3, 15]: 53.8 ± 8.63 ng/mL
MRT [3, 15]: 82.8 ± 7.2 min
Tmax [3, 15]: 45 min
half-life ([3]; male, Sprague-Dawley, rat, plasma, po, CdG alone): 42 min
time to reach undetectable plasma levels after administration ([3]; rats, i.v. and p.o.): ≤ 9 h
t1/2 ([3]; rats, p.o., CdG alone): 43.8 ± 7.2 min
replication of ETV-resistant HBV (ETV-resistant HBV): significantly blocked
IC50 (wild-type HBV [4]): 400 pM
replication of wild-type HBV (wild-type HBV [5]): significantly blocked
form excreted into the urine ([6]; LC/MS chromatographic profile of urine): unchanged form
urinary excretion, % of the given dose ([6]; i.v. 1 mg/kg, 9 h): 45%
amount of unchanged CdG accumulated in urine ([6]; i.v. 1 mg/kg): about 113 μg
amount of unchanged CdG accumulated in urine ([6]; p.o. 1 mg/kg): ~49 µg
fraction unbound at 500 ng/ml [7]: ~0.393
binding rate to AGP [8]: about 13.5 ± 0.01%
metabolism by CYP450 [9]: rarely metabolized by CYP450
amount accumulated in the urine, % of the given dose [10]: about 40%
distribution to liver vs kidney [11]: higher levels of CdG were distributed to the liver than the kidney; also recorded: distributed to the liver rather than kidney
Tmax [12]: 45 min
binding rate to HSA [13]: about 11.6 ± 0.01%

CC(C)(C)C(=O)OCOP(=O)(COCCn1cnc2c(N)ncnc21)OCOC(=O)C(C)(C)C [adefovir dipivoxil]
bioavailability [2]: approximately 50%
